The values that follow come from US4956345A, “2-alkynyladenosines as antihypertensive agents” (Yamasa Shoyu Kabushiki Kaisha, priority 1985, dated 1990).

For one series, the system named is heart rate. Briefly: Test 3: change in heart rate in NR. The settings on record: 100 μg/kg, procedure of Test 2, 10- to 12-week-old male Wistar rats. It counts as in vivo, male Wistar rats (normotensive rats. As to the method: (§1) The procedure of Test 2 was followed with 10- to 12-week-old male Wistar rats (divided into groups of three rats each) to measure the hypotensive effects of the respective pharmaceutical preparations (100 μg/kg). Simultaneously, the change in heart rate was measured. The heart rate was measured by an ictometer based on the systolic blood pressure as a trigger.

Series [1] relates to blood pressure in NR. Kind of series: Test 3: effect on the blood pressure in NR, intravenous. In kind it is in vivo, male Wistar rats (normotensive rats. The conditions noted are these: 100 μg/kg, procedure of Test 2 (femoral vein), 10- to 12-week-old male Wistar rats. As to the method: (§2) Thirty-two-week-old male SHRs (divided into groups of three rats each) were anesthetized with urethane (1.1 g/kg, i.p.), and the blood pressure of each of the rats delivered from the common carotid artery was recorded on a polygraph through a pressure transducer (Model MPU-0.5).
(§3) The pharmaceutical preparation was administered through a cannula inserted into the femoral vein of the rat at a rate of 0.5 ml/kg, and the blood pressure was measured continuously from before administration to 30 minutes after administration.
as §1

The subject of series [2] is blood pressure in SHR. Briefly: Test 1: effect on the blood pressure in SHR, oral, tail artery sphygmomanometer. The settings on record: 12- to 15-week-old male SHR, maximum within 2, 4, 6 and 8 hours. In kind it is in vivo, spontaneously hypertensive rats (SHR). How it is done:
To twelve- to fifteen-week-old male SHRs were orally administered test compounds each suspended in 0.5% CMC/physiological saline at a rate of 2 ml/kg. The blood pressure of the thus treated SHRs was measured by means of a tail artery sphygmomanometer (supplied by Nalco Co., Model PE-300) prior to the oral administration and at 2, 4, 6 and 8 hours thereafter. Reduction in blood pressure was calculated on the basis of the values thus obtained, and the maximum reduction levels attained by the respective compounds are summarized in TABLE 2. Each test compound was evaluated with a group of 4 rats.

In series [3] the test system is blood pressure in SHR. Briefly: Test 2: effect on the blood pressure in SHR, intravenous, anesthetized. It counts as in vivo, spontaneously hypertensive rats (SHR), male. The conditions noted are these: for Reduction in blood pressure (-Δmax, mmHg): 100 μg/kg, femoral vein, 32-week-old male SHR, urethane anesthesia, 30 minutes; for selectivity of hypotensive effect, SHR versus NR (in words): TABLES 3 and 4, 100 μg/kg. How it is done: as §2, §3

For a further series, the system named is male Jcl:ICR mice. Kind of series: Test 5: Acute toxicity. In kind it is in vivo. As to the method: (§4) The acute toxicity of Compound 8(n=13) was tested with seven-week-old male Jcl:ICR mice.
(§5) The physically allowable doses of Compound 8 for intraperitoneal administration and oral administration were 800 mg/kg and 1,300 mg/kg, respectively.

For series [4], the system named is blood pressure in SHR. Briefly: Test 4: effect on the blood pressure in SHR, oral. The conditions noted are these: 10 mg/kg. In kind it is in vivo, spontaneously hypertensive rats (SHR), male.
The nature of a further series: Test 5: Acute toxicity. The settings on record: mouse, in vivo. It counts as in vivo. As to the method:
as §4, §5

The test system of series [5] is blood pressure in NR. Kind of series: Test 4: effect on the blood pressure in NR, oral. The conditions noted are these: Wistar rat, 18- to 20-week-old male, 10 mg/kg. In kind it is in vivo, male Wistar rats (normotensive rats. How it is done:
Eighteen- to twenty-week-old male SHR (divided into groups of four rats each) and eighteen- to twenty-week-old male Wistar rats (divided into groups of four rats each) were orally administered with Compound 8(n=13) in the same manner as in Test 2 at a dose of 10 mg/kg, and the blood pressure of each of the rats was measured.

The next series concerns adenosine deaminase. The conditions noted are these: background statement; cited from earlier work.
In another series the test system is heart. The settings on record: side effect, background statement; cited from earlier work.

Each structure is given as a SMILES string. Read-outs that look alike come from different tables or passages of the source.

On to `CCCC#Cc1nc(N)c2ncn([C@@H]3O[C@H](CO)[C@@H](O)[C@H]3O)c2n1` [Compound 1], for which the “Change in heart rate (ΔHR)” value in the series with heart rate was -48. The “Reduction in blood pressure (-Δmax, mmHg)” value (from here on “Reduction … (-Δmax, mmHg)”) with blood pressure in NR [1] worked out at 21 mmHg.
Regarding `CCCCC#Cc1nc(N)c2ncn([C@@H]3O[C@H](CO)[C@@H](O)[C@H]3O)c2n1` [Compound 2], the figures for the “Reduction … (-Δmax, mmHg)” value in the series on blood pressure in SHR [2] (1 mg/kg) and with blood pressure in NR [1] were > 136 mmHg and 42 mmHg, respectively. In addition, the “Change in heart rate (ΔHR)” value in the series with heart rate is on record as -36.
As for `CCCCCC#Cc1nc(N)c2ncn([C@@H]3O[C@H](CO)[C@@H](O)[C@H]3O)c2n1` [Compound 3], in the series on heart rate, the “Change in heart rate (ΔHR)” value was -180. For the same compound, the “Reduction … (-Δmax, mmHg)” value in the series with blood pressure in NR [1] was determined as 48 mmHg.
In the case of `CCCCCCC#Cc1nc(N)c2ncn([C@@H]3O[C@H](CO)[C@@H](O)[C@H]3O)c2n1` [Compound 4], the “Reduction … (-Δmax, mmHg)” value is recorded as 69 mmHg with blood pressure in SHR [2] (1 mg/kg) and 55 mmHg with blood pressure in NR [1]. Further, the “Change in heart rate (ΔHR)” value in the series on heart rate is given as -288.
With `CCCCCCCCC#Cc1nc(N)c2ncn([C@@H]3O[C@H](CO)[C@@H](O)[C@H]3O)c2n1` [Compound 5], the results for the “Reduction … (-Δmax, mmHg)” value in the series with blood pressure in SHR [2] (3 mg/kg) and with blood pressure in NR [1] were 106 mmHg and 24 mmHg, respectively. Besides, the “Change in heart rate (ΔHR)” value with heart rate is given as -18.
In the case of `CCCCCCCCCCC#Cc1nc(N)c2ncn([C@@H]3O[C@H](CO)[C@@H](O)[C@H]3O)c2n1` [Compound 6], the “Reduction … (-Δmax, mmHg)” value in the series with blood pressure in SHR [2] (3 mg/kg) was 65 mmHg; in the series on blood pressure in SHR [3] it was 20 mmHg; in the series on blood pressure in NR [1], 26 mmHg. The “selectivity of hypotensive effect, SHR versus NR (in words)” value (shortened to “selectivity … SHR versus NR (in words)”) in the series on blood pressure in SHR [3] is “substantially equal hypotensive effect on SHR and NR”. In addition, in the series on male Jcl:ICR mice (mouse, in vivo), the “mortality, intraperitoneal administration of 500 mg/kg” value is recorded as “all the five mice forming one group died”. Moreover, in the series on heart rate, the “Change in heart rate (ΔHR)” value is listed as -12.
Turning to `CCCCCCCCCCCCC#Cc1nc(N)c2ncn([C@@H]3O[C@H](CO)[C@@H](O)[C@H]3O)c2n1` [Compound 7], the figures for the “Reduction … (-Δmax, mmHg)” value in the series with blood pressure in SHR [2] (3 mg/kg), with blood pressure in SHR [3] and in the series with blood pressure in NR [1] were 65 mmHg, 21 mmHg and 10 mmHg, respectively. The “selectivity … SHR versus NR (in words)” value in the series with blood pressure in SHR [3] is “acted selectively on SHR”. In addition, the “Change in heart rate (ΔHR)” value in the series on heart rate turned out to be 0.
Take `CCCCCCCCCCCCCCC#Cc1nc(N)c2ncn([C@@H]3O[C@H](CO)[C@@H](O)[C@H]3O)c2n1` [Compound 8]: the “Reduction … (-Δmax, mmHg)” value in the series on blood pressure in SHR [2] (3 mg/kg) is on record as 48 mmHg; in the series on blood pressure in SHR [3] it was 16 mmHg; in the series on blood pressure in NR [1] it was 5 mmHg. In addition, the “selectivity … SHR versus NR (in words)” value in the series on blood pressure in SHR [3] is given as “acted selectively on SHR”. Also, in the series on blood pressure in SHR [4] (SHR versus Wistar rat, TABLE 5), the “selectivity of hypotensive effect on SHR, oral (in words)” value is “tendency of Compound 8(n=13) to act selectively on SHR”. In addition, the “Reduction in blood pressure (-Δ, mmHg), 1 hr. after administration” value in the series on blood pressure in SHR [4] (SHR, 18- to 20-week-old male, 1 hr) stood at 41 mmHg; with blood pressure in NR [5] (1 hr), 16 mmHg. Further, the “Reduction in blood pressure (-Δ, mmHg), 2 hrs. after administration” value with blood pressure in SHR [4] (SHR, 18- to 20-week-old male, 2 hrs) turned out to be 42 mmHg; in the series on blood pressure in NR [5] (2 hrs), 24 mmHg. The “toxicity compared with Compound 6 (in words)” value in the series with male Jcl:ICR mice (compared with long-chain compound such as Compound 6) was “less toxic”. Moreover, the “mortality at maximum doses” value with male Jcl:ICR mice (mouse, in vivo) is given as “None of the mice administered with the test compound at these maximum doses, divided into groups of five mice each, died”. In addition, the LD50 in “Test 5: Acute toxicity” (ip, read-out: LD50, intraperitoneal administration) was > 800 mg/kg; in the series “Test 5: Acute toxicity” (po, read-out: LD50, oral administration), > 1300 mg/kg. In addition, the selectivity ratio in the series “Test 5: Acute toxicity” (po) is ≥ 400. Moreover, in the series on heart rate, the “Change in heart rate (ΔHR)” value was found to be 0.
Consider `CCCCCCCCCCCCCCCC#Cc1nc(N)c2ncn([C@@H]3O[C@H](CO)[C@@H](O)[C@H]3O)c2n1` [Compound 9], for which the “Reduction … (-Δmax, mmHg)” value in the series with blood pressure in SHR [2] (3 mg/kg) is on record as 35 mmHg; with blood pressure in NR [1] it was 3 mmHg. For the same compound, the “Change in heart rate (ΔHR)” value with heart rate is reported as -6.
Take `CCCCCCCCCCCCCCCCC#Cc1nc(N)c2ncn([C@@H]3O[C@H](CO)[C@@H](O)[C@H]3O)c2n1` [Compound 10]: the entries for the “Reduction … (-Δmax, mmHg)” value in the series on blood pressure in SHR [2] (3 mg/kg) and in the series with blood pressure in NR [1] were 46 mmHg and 10 mmHg, respectively. Also, the “Change in heart rate (ΔHR)” value with heart rate was -5.
With `Nc1ncnc2c1ncn2[C@@H]1O[C@H](CO)[C@@H](O)[C@H]1O` [adenosine], the “deamination by adenosine deaminase” value in the series with adenosine deaminase is given as “rapidly deaminated by adenosine deaminase”. Also, the “suppressive effect on the heart” value with heart is reported as “strong suppressive effect on the heart”.
